Values quoted from earlier work as cited in US20230024950A1, “METHODS FOR TREATING NEURODEGENERATIVE DISORDERS” (Alzheon, Inc., priority 2019, published 2023).

How the values were obtained:
[1] = not given; remark: listed apart in the source
Aβ oligomers = Aβ oligomers (Homo sapiens, UniProt P05067); settings: in vitro
Aβ oligomers, sequence (P05067 672-713 limits assumed): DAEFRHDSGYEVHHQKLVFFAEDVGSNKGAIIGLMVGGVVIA

Row | Structure (SMILES) | plasma exposure compared with tramiprosate from the Phase 3 studies (Phase 1b) | pharmacokinetics and oral tolerability compared with tramiprosate (oral) | safety profile ([1]; Phase 3 trials and safety extension study, exposures of up to 2.5 years) | effect on MRI imaging: brain hippocampal volume (hippocampus atrophy) ([1]; Phase 3 trials, mild-to-moderate AD, dose-dependent) | benefit on cognition ([1]; subgroup analysis of APOE4/4 homozygotes, 100 mg BID or 150 mg BID over 78 weeks) | cognitive efficacy ([1]; subset of APOE4 carriers, especially APOE4/4 homozygotes) | formation of Aβ oligomers (Aβ oligomers)
1 | CC(C)[C@H](N)C(=O)NCCCS(=O)(=O)O [ALZ-801, valyl-3-amino-1-propanesulfonic acid] | bioequivalence to plasma exposures to tramiprosate | improved pharmacokinetics and oral tolerability over tramiprosate | – | – | – | – | –
2 | NCCCS(=O)(=O)O [Tramiprosate, 3-amino-1-propanesulfonic acid] | – | – | favorable safety profile | slowing the reduction of brain hippocampal volume | positive and clinically meaningful benefit on cognition | positive cognitive efficacy | inhibits the formation of Aβ oligomers in vitro
